Test results reported in patent US20240199546A1, “INHIBITORS OF SOLUTE CARRIER FAMILY 6A MEMBER 19 (SLC6A19) AND METHODS OF USE THEREOF” (Maze Therapeutics, Inc., priority 2022, published 2024).

Target: T1, human SLC6A19 and TMEM27 (Homo sapiens, UniProt Q695T7)
T1 construct: expressed in transfected cells
T1 sequence (Q695T7 1-634): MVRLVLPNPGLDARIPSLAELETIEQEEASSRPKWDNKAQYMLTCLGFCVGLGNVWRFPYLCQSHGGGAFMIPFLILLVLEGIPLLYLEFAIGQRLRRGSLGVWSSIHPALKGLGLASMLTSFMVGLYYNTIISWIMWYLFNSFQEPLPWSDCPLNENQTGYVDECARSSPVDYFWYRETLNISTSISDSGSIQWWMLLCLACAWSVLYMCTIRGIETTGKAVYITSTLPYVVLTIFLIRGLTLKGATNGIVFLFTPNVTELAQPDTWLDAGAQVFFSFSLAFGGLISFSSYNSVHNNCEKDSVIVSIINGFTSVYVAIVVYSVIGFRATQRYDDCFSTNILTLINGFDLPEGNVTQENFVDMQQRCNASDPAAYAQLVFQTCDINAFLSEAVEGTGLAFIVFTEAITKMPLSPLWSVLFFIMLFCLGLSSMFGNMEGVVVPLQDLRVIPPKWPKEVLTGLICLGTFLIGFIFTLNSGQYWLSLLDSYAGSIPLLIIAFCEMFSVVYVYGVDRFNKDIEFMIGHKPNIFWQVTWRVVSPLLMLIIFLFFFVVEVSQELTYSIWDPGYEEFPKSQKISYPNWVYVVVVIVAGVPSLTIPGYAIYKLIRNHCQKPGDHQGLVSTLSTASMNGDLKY
T1 sequence (Q9HBJ8 15-222 partner): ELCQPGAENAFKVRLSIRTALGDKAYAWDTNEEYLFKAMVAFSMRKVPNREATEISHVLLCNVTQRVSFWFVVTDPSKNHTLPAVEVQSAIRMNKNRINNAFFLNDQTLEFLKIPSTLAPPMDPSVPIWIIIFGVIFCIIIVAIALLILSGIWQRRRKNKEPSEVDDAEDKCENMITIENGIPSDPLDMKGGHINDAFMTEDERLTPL
Assay: 13C6,15N-isoleucine uptake in CHO cells with doxycycline-inducible expression of human SLC6A19 and TMEM27, RapidFire mass spectrometry (Example B-2)
Assay type: cell-based
Settings: read-out: SLC6A19_RapidFire Uptake Assay IC50
Experimental: Assay ready vials of CHO cells with doxycycline inducible expression of human SLC6A19 and TMEM27 were thawed, plated in T175 flasks containing DMEM/F12 media, 10% FBS, 1% Penicillin-Streptomycin, 1× UltraGlutamate, 1 mM Sodium Pyruvate, Sodium Bicarbonate (7.5 mL of 7.5% solution in 500 mL media final), 5 μg/mL Blasticidin, 150 μg/mL Hygromycin B Gold, and 500 μg/mL G418, and incubated (humidified, 37° C. with 5% CO2) for 48 hours. Media was then removed, flasks were washed with 20 mL of DPBS, and 5 mL of TrypLE™ Express was added to each flask to initiate cell dissociation. After 5 minutes, 10 mL of cell culture media was added to each flask and mixed. The cell suspension was collected and centrifuged for 5 minutes at 200×g. The supernatant was removed, and the pellet was resuspended in 10 mL of cell culture media. Resuspended cells were counted using a Vi-Cell. 30 μL/well (20,000 cells/well) of cell suspension was added to Poly-D-Lysine 384-well black/clear plates. Plates were incubated (humidified, 37° C. with 5% CO2) for 24 hours. To induce expression of human SLC6A19 and TMEM27, 10 μL of assay culture media containing 4 μg/mL doxycycline was added to each well. Assay plates were then incubated (humidified, 37° C. with 5% CO2) overnight. After incubation, the media was removed, and wells were washed 3 times with 40 μL of warmed DPBS. Next, 10 μL of warmed assay buffer (137 mM NaCl, 5 mM KCl, 1 mM CaCl2), 1 mM MgCl2, 10 mM HEPES, 10 mM glucose, pH 7.2) was added to each well. 10 μL/well of test compound or positive control compound to define 0% activity (i.e., 100% inhibition), was then added into each well. All compounds were plated in a duplicate 10-point dilution series that consisted of 2-fold dilutions. The plates were incubated (humidified, 37° C. with 5% C2) with compound for 20 minutes. Afterwards, 20 μL/well of 2 mM 13C6,15N-1-isoleucine was added to each well and plates were incubated again (humidified, 37° C. with 5% C02) for another 20 minutes. Assay buffer was then removed, and plates were washed. 70 μL/well of stop solution (75% acetonitrile, 25% HPLC grade water, 250 nM 1-leucine-1-13C (RapidFire standard)) was added to each well. The plates were sealed and then placed in a −20° C. freezer for 20 minutes. The plates were thawed at room temperature for 20 minutes and then centrifuge for 20 minutes at 3000 rpm. Using an ABSciex API4000 mass spectrometer, processed samples were loaded onto the graphitic carbon SPE-column. The time for aspiration, load/wash, elution and re-equilibration time was 600, 1500, 3000 and 500 milliseconds, respectively. Peak areas were calculated using RapidFire Integrator software.

IC50 | Structure (SMILES)
39 nM | CC1(C(=O)NCc2cc3cc(Cl)c(OCc4cnsn4)cc3[nH]2)CC1 [Compound 183, N-((6-((1,2,5-thiadiazol-3-yl)methoxy)-5-chloro-1H-indol-2-yl)methyl)-1-methylcyclopropane-1-carboxamide]
370 nM | CC1(C(=O)NCc2cc3cc(Cl)c(OCc4cccnc4)cc3[nH]2)CC1 [Compound 39, N-((5-chloro-6-(pyridin-3-ylmethoxy)-1H-indol-2-yl)methyl)-1-methylcyclopropane-1-carboxamide]
68 nM | CC1(C(=O)NCc2cc3cc(Cl)c(OCc4cocn4)cc3[nH]2)CC1 [Compound 161, N-((5-chloro-6-(oxazol-4-ylmethoxy)-1H-indol-2-yl)methyl)-1-methylcyclopropane-1-carboxamide]
168 nM | CC1(C(=O)NCc2cc3ccc(OCc4ccon4)cc3[nH]2)CC1 [Compound 20, N-((6-(isoxazol-3-ylmethoxy)-1H-indol-2-yl)methyl)-1-methylcyclopropane-1-carboxamide]
267 nM | CCc1cc(COc2cc3[nH]c(CNC(=O)C4(C)CC4)cc3cc2Cl)no1 [Compound 95]
493 nM | CC1(C(=O)NCc2cc3ccc(OCc4ccno4)cc3[nH]2)CC1 [Compound 62, N-((6-(isoxazol-5-ylmethoxy)-1H-indol-2-yl)methyl)-1-methylcyclopropanecarboxamide]
355 nM | Cc1cc(CCc2ccc3cc(CNC(=O)C4(C)CC4)[nH]c3c2)no1 [Compound 77, 1-methyl-N-((6-(2-(5-methylisoxazol-3-yl)ethyl)-1H-indol-2-yl)methyl)cyclopropane-1-carboxamide]
4820 nM | CC1(C(=O)NCc2cc3ccc(OCc4ccncn4)cc3[nH]2)CC1 [Compound 53, 1-methyl-N-((6-(pyrimidin-4-ylmethoxy)-1H-indol-2-yl)methyl)cyclopropane-1-carboxamide]
198 nM | Cc1c(CNC(=O)C2(C)CC2)[nH]c2cc(OCc3ccccc3)ccc12 [Compound 156, N-((6-(benzyloxy)-3-methyl-1H-indol-2-yl)methyl)-1-methylcyclopropane-1-carboxamide]
48 nM | CC1(C(=O)NCc2cc3ccc(OCc4cnsn4)cc3[nH]2)CC1 [Compound 166, N-((6-((1,2,5-thiadiazol-3-yl)methoxy)-1H-indol-2-yl)methyl)-1-methylcyclopropane-1-carboxamide]
91 nM | Cc1nc(COc2cc3[nH]c(CNC(=O)C4(C)CC4)cc3cc2Cl)co1 [Compound 182, N-((5-chloro-6-((2-methyloxazol-4-yl)methoxy)-1H-indol-2-yl)methyl)-1-methylcyclopropane-1-carboxamide]
7440 nM | Cn1cc(COc2ccc3cc(CNC(=O)C4(C)CC4)[nH]c3c2)nn1 [Compound 168, 1-methyl-N-((6-((1-methyl-1H-1,2,3-triazol-4-yl)methoxy)-1H-indol-2-yl)methyl)cyclopropane-1-carboxamide]
515 nM | CNC(=O)NCc1cc2cc(Cl)c(OCc3cncs3)cc2[nH]1 [Compound 109, 1-((5-chloro-6-(thiazol-5-ylmethoxy)-1H-indol-2-yl)methyl)-3-methylurea]
485 nM | O=C(NCc1cc2cc(Cl)c(OCc3cncs3)cc2[nH]1)N1CCCC1 [Compound 119, N-((5-chloro-6-(thiazol-5-ylmethoxy)-1H-indol-2-yl)methyl) pyrrolidine-1-carboxamide]
586 nM | CNC(=O)NCc1cc2cc(Cl)c(OCc3cocn3)cc2[nH]1 [Compound 111, 1-((5-chloro-6-(oxazol-4-ylmethoxy)-1H-indol-2-yl)methyl)-3-methylurea]
3420 nM | CNC(=O)NCc1cc2ccc(OCc3cscn3)cc2[nH]1 [Compound 217, 1-methyl-3-((6-(thiazol-4-ylmethoxy)-1H-indol-2-yl)methyl)urea]
1360 nM | CC1(C(=O)NCc2cc3ccc([C@@H]4C[C@H]4c4ccccc4)cc3[nH]2)CC1 (racemic) [Compound 154, trans-1-methyl-N-((6-(2-phenylcyclopropyl)-1H-indol-2-yl)methyl)cyclopropane-1-carboxamide]
920 nM | CC1(C(=O)NCc2cc3ccc(OCc4cnco4)cc3[nH]2)CC1 [Compound 163, 1-methyl-N-((6-(oxazol-5-ylmethoxy)-1H-indol-2-yl)methyl)cyclopropane-1-carboxamide]
1950 nM | CC1(C(=O)NCc2cc3ccc(OCc4ccncc4)cc3[nH]2)CC1 [Compound 56, 1-methyl-N-((6-(pyridin-4-ylmethoxy)-1H-indol-2-yl)methyl)cyclopropane-1-carboxamide]
1620 nM | Cc1cccc(COc2cc3[nH]c(CNC(=O)C4(C)CC4)cc3cc2Cl)n1 [Compound 42, N-((5-chloro-6-((6-methylpyridin-2-yl)methoxy)-1H-indol-2-yl)methyl)-1-methylcyclopropane-1-carboxamide]
178 nM | CC1(C(=O)NCc2cc3ccc(OCC4CCCC4)cc3[nH]2)CC1 [Compound 187, N-((6-(cyclopentylmethoxy)-1H-indol-2-yl)methyl)-1-methylcyclopropane-1-carboxamide]
452 nM | O=C(NCc1cc2ccc(OCc3ccon3)cc2[nH]1)N1CCCC1 [Compound 104, N-((6-(isoxazol-3-ylmethoxy)-1H-indol-2-yl)methyl)pyrrolidine-1-carboxamide]
271 nM | CC1(C(=O)NCc2cc3cc(F)c(OCc4cncs4)cc3[nH]2)CC1 [Compound 9, N-((5-fluoro-6-(thiazol-5-ylmethoxy)-1H-indol-2-yl)methyl)-1-methylcyclopropane-1-carboxamide]
698 nM | CCC(=O)NCc1cc2ccc(OCc3cc(C)on3)cc2[nH]1 [Compound 47, N-((6-((5-methylisoxazol-3-yl)methoxy)-1H-indol-2-yl)methyl)propionamide]
193 nM | Cc1cc(COc2ccc3cc(CNC(=O)C4(C)CC4)[nH]c3c2)no1 [Compound 50, 1-methyl-N-((6-((5-methylisoxazol-3-yl)methoxy)-1H-indol-2-yl)methyl)cyclopropane-1-carboxamide]
504 nM | CC1(C(=O)NCc2cc3ccc(NCc4ccccc4)cc3[nH]2)CC1 [Compound 3, N-((6-(benzylamino)-1H-indol-2-yl)methyl)-1-methylcyclopropanecarboxamide]
187 nM | CC1(C(=O)NCc2cc3ccc(OCc4csnn4)cc3[nH]2)CC1 [Compound 170, N-((6-((1,2,3-thiadiazol-4-yl)methoxy)-1H-indol-2-yl)methyl)-1-methylcyclopropane-1-carboxamide]
83 nM | Cc1noc(COc2ccc3cc(CNC(=O)C4(C)CC4)[nH]c3c2)n1 [Compound 169, 1-methyl-N-((6-((3-methyl-1,2,4-oxadiazol-5-yl)methoxy)-1H-indol-2-yl)methyl)cyclopropane-1-carboxamide]
44 nM | CC1(C(=O)NCc2cc3cc(Cl)c(OCc4ccsn4)cc3[nH]2)CC1 [Compound 38, N-((5-chloro-6-(isothiazol-3-ylmethoxy)-1H-indol-2-yl)methyl)-1-methylcyclopropane-1-carboxamide]
